This is an account of results in US12492188B2, “1H-benzo[D]imidazole derivatives as TLR9 inhibitors for the treatment of fibrosis” (BRISTOL-MYERS SQUIBB COMPANY, priority 2020, dated 2025).

Like-named read-outs stand apart in the source and are kept apart here. A value given as a limit tells only on which side of the number the result lay.

As a reminder, the IC50 is the point on the concentration scale where inhibition reaches its midpoint.

Common to all, as to assay type: cell-based
The target in one assay is T1, human TLR9 (Homo sapiens, UniProt Q9NR96).
T1 construct: host or cells: HEK-Blue cells (HEK293-derived reporter line)
T1 sequence (Q9NR96 26-1032): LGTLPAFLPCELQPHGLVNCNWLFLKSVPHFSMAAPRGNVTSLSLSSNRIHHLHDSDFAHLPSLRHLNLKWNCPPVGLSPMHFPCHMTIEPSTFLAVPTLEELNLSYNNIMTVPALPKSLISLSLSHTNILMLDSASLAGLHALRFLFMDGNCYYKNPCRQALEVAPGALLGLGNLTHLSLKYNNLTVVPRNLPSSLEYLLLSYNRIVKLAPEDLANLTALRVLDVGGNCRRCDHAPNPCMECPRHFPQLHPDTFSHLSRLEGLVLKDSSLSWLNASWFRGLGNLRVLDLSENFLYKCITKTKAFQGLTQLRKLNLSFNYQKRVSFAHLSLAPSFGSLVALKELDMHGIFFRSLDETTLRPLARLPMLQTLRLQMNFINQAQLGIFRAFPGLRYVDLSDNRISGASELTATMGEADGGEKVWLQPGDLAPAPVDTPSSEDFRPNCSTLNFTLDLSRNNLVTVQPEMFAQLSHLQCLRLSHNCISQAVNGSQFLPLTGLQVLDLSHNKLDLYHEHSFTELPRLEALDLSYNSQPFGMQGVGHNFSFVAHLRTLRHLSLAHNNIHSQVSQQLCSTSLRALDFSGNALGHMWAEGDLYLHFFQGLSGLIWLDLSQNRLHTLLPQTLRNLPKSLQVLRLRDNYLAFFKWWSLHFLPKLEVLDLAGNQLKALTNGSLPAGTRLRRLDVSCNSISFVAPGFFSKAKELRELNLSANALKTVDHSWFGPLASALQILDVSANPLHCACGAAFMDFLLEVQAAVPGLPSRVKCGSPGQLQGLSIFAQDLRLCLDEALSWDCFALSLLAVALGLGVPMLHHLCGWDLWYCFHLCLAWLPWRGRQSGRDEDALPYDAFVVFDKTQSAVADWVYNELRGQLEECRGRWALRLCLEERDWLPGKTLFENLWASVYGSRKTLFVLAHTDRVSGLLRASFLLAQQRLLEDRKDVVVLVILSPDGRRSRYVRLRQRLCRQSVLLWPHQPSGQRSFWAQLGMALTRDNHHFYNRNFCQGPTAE
Briefly: TLR9 inhibition reporter assay (HEK-Blue cells, secreted embryonic alkaline phosphatase reporter). In a few lines:
(§1)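 Agonist-driven SEAP output was measured in HEK-Blue reporter cells carrying human TLR7 (gardiquimod 7.5 μM), TLR8 (R848 15.9 μM) or TLR9 (ODN2006 5 nM). Compounds at 0.05 nM–50 μM final were added 30 min before stimulation at room temperature. After 22 h at 37 °C, percent inhibition was taken against agonist/DMSO wells and a reference inhibitor.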
(A reporter such as luciferase makes a cellular process visible.)

A further assay has as its target T2, human TLR8 (Homo sapiens, UniProt Q9NR97).
T2 construct: host or cells: HEK-Blue cells (HEK293-derived reporter line)
T2 sequence (Q9NR97 27-1041): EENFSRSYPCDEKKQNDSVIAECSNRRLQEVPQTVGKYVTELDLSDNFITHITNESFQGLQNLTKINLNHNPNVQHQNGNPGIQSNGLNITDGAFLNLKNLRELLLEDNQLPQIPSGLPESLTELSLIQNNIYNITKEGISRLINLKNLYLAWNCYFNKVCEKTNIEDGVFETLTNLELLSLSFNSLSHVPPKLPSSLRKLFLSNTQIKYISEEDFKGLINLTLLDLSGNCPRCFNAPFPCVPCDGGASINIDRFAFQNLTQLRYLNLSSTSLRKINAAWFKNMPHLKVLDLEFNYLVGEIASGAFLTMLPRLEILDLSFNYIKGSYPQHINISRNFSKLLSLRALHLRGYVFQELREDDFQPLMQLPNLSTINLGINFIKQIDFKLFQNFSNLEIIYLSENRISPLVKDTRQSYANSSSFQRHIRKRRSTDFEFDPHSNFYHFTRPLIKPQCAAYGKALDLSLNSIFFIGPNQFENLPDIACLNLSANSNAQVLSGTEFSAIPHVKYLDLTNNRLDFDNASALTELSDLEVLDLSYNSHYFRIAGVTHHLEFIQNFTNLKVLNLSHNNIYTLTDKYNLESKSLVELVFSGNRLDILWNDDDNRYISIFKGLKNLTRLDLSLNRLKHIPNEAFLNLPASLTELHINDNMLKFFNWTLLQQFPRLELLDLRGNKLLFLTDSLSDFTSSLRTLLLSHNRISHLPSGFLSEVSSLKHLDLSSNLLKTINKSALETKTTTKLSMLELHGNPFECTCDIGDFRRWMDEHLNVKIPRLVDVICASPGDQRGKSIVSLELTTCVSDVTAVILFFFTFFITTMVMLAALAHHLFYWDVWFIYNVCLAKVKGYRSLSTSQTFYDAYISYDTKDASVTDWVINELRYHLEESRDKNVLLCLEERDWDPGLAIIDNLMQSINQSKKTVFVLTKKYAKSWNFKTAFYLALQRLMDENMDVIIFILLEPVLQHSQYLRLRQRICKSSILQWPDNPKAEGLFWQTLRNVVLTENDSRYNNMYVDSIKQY
Briefly: TLR8 inhibition reporter assay (HEK-Blue cells, secreted embryonic alkaline phosphatase reporter). The conditions noted are these: HEK-Blue cells overexpressing human TLR8, stimulated with R848 15.9 μM; read-out: TLR 8 IC50. The method, boiled down:
as §1

The next assay concerns the target T3, human TLR7 (Homo sapiens, UniProt Q9NYK1).
T3 construct: host or cells: HEK-Blue cells (HEK293-derived reporter line)
T3 sequence (Q9NYK1 27-1049): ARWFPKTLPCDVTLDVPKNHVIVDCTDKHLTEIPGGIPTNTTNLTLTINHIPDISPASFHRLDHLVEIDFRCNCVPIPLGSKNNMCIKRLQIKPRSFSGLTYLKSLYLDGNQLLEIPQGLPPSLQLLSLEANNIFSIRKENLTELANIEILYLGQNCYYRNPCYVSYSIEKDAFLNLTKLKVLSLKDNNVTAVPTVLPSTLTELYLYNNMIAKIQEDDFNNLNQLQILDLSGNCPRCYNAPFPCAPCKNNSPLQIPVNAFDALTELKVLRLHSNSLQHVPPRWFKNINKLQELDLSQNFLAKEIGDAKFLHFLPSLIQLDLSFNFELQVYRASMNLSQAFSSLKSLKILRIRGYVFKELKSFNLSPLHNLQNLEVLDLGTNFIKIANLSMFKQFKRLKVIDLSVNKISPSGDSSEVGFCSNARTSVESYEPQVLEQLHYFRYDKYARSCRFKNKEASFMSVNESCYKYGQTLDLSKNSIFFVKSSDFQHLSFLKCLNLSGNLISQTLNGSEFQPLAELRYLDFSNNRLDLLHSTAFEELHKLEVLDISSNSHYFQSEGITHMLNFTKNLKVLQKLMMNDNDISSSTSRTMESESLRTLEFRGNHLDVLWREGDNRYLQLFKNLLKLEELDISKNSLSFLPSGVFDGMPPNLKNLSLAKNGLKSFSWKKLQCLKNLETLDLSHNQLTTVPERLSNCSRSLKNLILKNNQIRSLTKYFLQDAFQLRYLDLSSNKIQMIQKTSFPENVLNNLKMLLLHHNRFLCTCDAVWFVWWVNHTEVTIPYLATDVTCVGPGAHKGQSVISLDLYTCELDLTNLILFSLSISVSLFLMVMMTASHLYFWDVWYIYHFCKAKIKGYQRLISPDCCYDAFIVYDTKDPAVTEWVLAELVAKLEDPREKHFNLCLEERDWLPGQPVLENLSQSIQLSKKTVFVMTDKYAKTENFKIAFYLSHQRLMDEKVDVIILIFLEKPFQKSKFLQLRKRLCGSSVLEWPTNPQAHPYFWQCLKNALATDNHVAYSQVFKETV
Put plainly: TLR7 inhibition reporter assay (HEK-Blue cells, secreted embryonic alkaline phosphatase reporter). To be noted: HEK-Blue cells overexpressing human TLR7, stimulated with gardiquimod 7.5 μM; read-out: TLR 7 IC50. The method, boiled down:
as §1

Where [1] appears, read: HEK-Blue cells overexpressing human TLR9, stimulated with ODN2006 5 nM, 22 hour incubation, reporter readout.
[2] abbreviates: HEK-Blue cells overexpressing human TLR9, stimulated with ODN2006 5 nM, read-out: TLR 9 IC50.

Take `CC(C)N1CCC(N2CCC(c3ccc4nc(-c5ccc(S(C)(=O)=O)cc5)n(C)c4c3F)CC2)CC1` [Example 102, 7-fluoro-6-(1′-isopropyl-[1,4′-bipiperidin]-4-yl)-1-methyl-2-(4-(methylsulfonyl)phenyl)-1H-benzo[d]imidazole]: the IC50 is 0.03 µM at human TLR9 (setting [1]), > 50 µM on human TLR8 and 9.8 µM at human TLR7.

Turning to `CC(C)N1CCC(N2CCC(c3cc(F)c4nc(-c5ccc(S(C)(=O)=O)cc5)n(C)c4c3)CC2)CC1` [Example 105, 4-fluoro-6-(1′-isopropyl-[1,4′-bipiperidin]-4-yl)-1-methyl-2-(4-(methylsulfonyl)phenyl)-1H-benzo[d]imidazole], the 50% inhibitory concentration (IC50) at human TLR9 (setting [1]) is 0.095 µM; at human TLR8, > 50 µM; at human TLR7, 25.5 µM.

Take `Cc1cc(C2CCN(C3CCN(C(C)C)CC3)CC2)cc2c1nc(-c1ccc(S(N)(=O)=O)cc1)n2C` [Example 112, 4-(6-(1′-isopropyl-[1,4′-bipiperidin]-4-yl)-1,4-dimethyl-1H-benzo[d]imidazol-2-yl)benzenesulfonamide]: the IC50 was 0.13 µM at human TLR9 (setting [1]), 0.127 µM at human TLR9 (setting [2]), > 50 µM at human TLR8 and > 50 µM at human TLR7.

As to `Cc1cc(C2CCN(C3CC4CCC(C3)N4CC(C)C)CC2)cc2c1nc(-c1ccc(S(C)(=O)=O)cc1)n2C` (stereo not shown) [Example 118, 6-(1-(8-isobutyl-8-azabicyclo[3.2.1]octan-3-yl)piperidin-4-yl)-1,4-dimethyl-2-(4-(methylsulfonyl)phenyl)-1H-benzo[d]imidazole], the 50% inhibitory concentration (IC50) was 0.12 µM on human TLR9 (setting [1]), 0.116 µM on human TLR9 (setting [2]), > 25 µM on human TLR8 and 19.2 µM on human TLR7.

As to `Cc1cc(C2CCN(C3CC4CCC(C3)N4CC(C)C)CC2)cc2[nH]c(-c3ccc(S(C)(=O)=O)cc3)nc12` (stereo not shown) [Example 121, 6-(1-(8-isobutyl-8-azabicyclo[3.2.1]octan-3-yl)piperidin-4-yl)-4-methyl-2-(4-(methylsulfonyl)phenyl)-1H-benzo[d]imidazole], the concentration for half-maximal inhibition (IC50) against human TLR9 (setting [1]) was 0.019 µM; on human TLR8, > 25 µM; at human TLR7 it was 14.5 µM.

Take `Cc1cc(C2CCN(C3CCN(C(C)C)CC3)CC2)cc2c1nc(-c1ccc(S(C)(=O)=O)c(F)c1)n2C` [Example 122, 2-(3-fluoro-4-(methylsulfonyl)phenyl)-6-(1′-isopropyl-[1,4′-bipiperidin]-4-yl)-1,4-dimethyl-1H-benzo[d]imidazole]: the IC50 against human TLR9 (setting [1]) is 0.14 µM; at human TLR9 (setting [2]), 0.139 µM; on human TLR8, > 25 µM; on human TLR7, 8.9 µM.

As to `COc1cc(-c2nc3c(C)cc(C4CCN(C5CCN(C(C)C)CC5)CC4)cc3n2C)cn2ncnc12` [Example 125, 6-(6-(1′-isopropyl-[1,4′-bipiperidin]-4-yl)-1,4-dimethyl-1H-benzo[d]imidazol-2-yl)-8-methoxy-[1,2,4]triazolo[1,5-a]pyridine], the IC50 on human TLR9 (setting [1]) was found to be 0.028 µM; at human TLR8, 2.1 µM; on human TLR7, 0.6 µM.

For `Cc1cc(-c2ccc(N3CCN(C4CCC4)CC3)cc2)cc2c1nc(-c1ccc(S(C)(=O)=O)cc1)n2C` [Example 174, 6-(4-(4-cyclobutylpiperazin-1-yl)phenyl)-1,4-dimethyl-2-(4-(methylsulfonyl)phenyl)-1H-benzo[d]imidazole], the IC50 on human TLR9 was 0.48 µM; on human TLR9 (setting [2]), 0.48 µM; at human TLR8, > 50 µM; at human TLR7 it was > 50 µM.

Take `CC(C)CN1CCC(N2CCC(c3ccc4nc(-c5ccc(S(C)(=O)=O)cc5)[nH]c4c3F)CC2)CC1` [Example 177, 7-fluoro-6-(1′-isobutyl-[1,4′-bipiperidin]-4-yl)-2-(4-(methylsulfonyl)phenyl)-1H-benzo[d]imidazole]: the IC50 against human TLR9 is 0.12 µM; on human TLR9 (setting [2]) it was 0.12 µM; at human TLR8, > 50 µM; at human TLR7 it was > 50 µM.

Take `CS(=O)(=O)c1ccc(-c2nc3ccc(C4CCN(C5CCN(C6CC6)CC5)CC4)c(F)c3[nH]2)cc1` [Example 178, 6-(1′-cyclopropyl-[1,4′-bipiperidin]-4-yl)-7-fluoro-2-(4-(methylsulfonyl)phenyl)-1H-benzo[d]imidazole]: the 50% inhibitory concentration (IC50) is 0.24 µM against human TLR9, 0.238 µM on human TLR9 (setting [2]), > 50 µM at human TLR8 and > 50 µM on human TLR7.

Consider `CS(=O)(=O)c1ccc(-c2nc3ccc(C4CCN(C5CCN(CC6CC6)CC5)CC4)c(F)c3[nH]2)cc1` [Example 179, 6-(1′-(cyclopropylmethyl)-[1,4′-bipiperidin]-4-yl)-7-fluoro-2-(4-(methylsulfonyl)phenyl)-1H-benzo[d]imidazole], for which the IC50 was 0.18 µM against human TLR9, 0.184 µM at human TLR9 (setting [2]), > 50 µM on human TLR8 and > 50 µM on human TLR7.
